The subject of the test is Per2-Luc reporter U2OS cells (D15). The experiment in a line: Circadian phase shift cell assay in D15 cells, 384 well plate, Tecan, with or without pentostatin. Type of test: cell-based, human. To be noted: for minimal effective concentration: read-out: Cell Assay; for With Pentostadin Cell Assay: pentostatin 5 μg/ml; for amplitude effect, Per2:luc signal versus control / period effect: under the concentration of 100 μM.

Where [1] appears, read: Homo sapiens, U2OS, without pentostatin, concentration that shifts the circadian phase.
The mark [2] stands for this setting: concentration that shifts the circadian phase.
[3] abbreviates: without pentostatin, concentration that shifts the circadian phase.

SMILES strings stand for the structures. Like-named read-outs stand apart in the source and are kept apart here.

`Nc1ncnc2c1ncn2[C@@H]1O[C@H](COP(=O)(O)OP(=O)(O)OP(=O)(O)O)CC1O` (stereo partly shown): the minimal effective concentration under setting [1] was 100 µM.

As for `Nc1nccc2c1ncn2[C@@H]1O[C@H](CO)[C@H](O)[C@H]1O`, under setting [1], the minimal effective concentration was greater than 500 µM. Also, the “With Pentostadin Cell Assay” value under setting [2] is 100 µM. Consider `OC[C@H]1O[C@@H](n2cnc3c(NC4CC4)ncnc32)C(O)C1O` (stereo partly shown), for which the minimal effective concentration under setting [1] was 100 µM.

Turning to `[2H]c1nc(N)c2nc([2H])n([C@@H]3O[C@H](CO)[C@H](O)[C@H]3O)c2n1` [NQZ-198], the “amplitude effect, Per2:luc signal versus control” value is listed as “more than two fold of control”. Consider `C#CC(O)C1O[C@@H](n2cnc3c(N)ncnc32)[C@H](O)[C@H]1O` (stereo partly shown), for which, under setting [1], the minimal effective concentration was greater than 500 µM. The “With Pentostadin Cell Assay” value under setting [2] turned out to be 100 µM. With `Nc1ncnc2c1ccn2[C@@H]1OC[C@@H](O)[C@H](O)[C@H]1O`, the minimal effective concentration under setting [1] came out at 100 µM. As to `Nc1ncnc2c1ncn2[C@@H]1O[C@H](COP(=O)(O)O)CC1O` (stereo partly shown), the minimal effective concentration under setting [1] is 100 µM.

With `Nc1ncnc2c1ncn2[C@@H]1O[C@H](COC(=O)CCCC[C@@H]2SC[C@@H]3NC(=O)N[C@@H]32)C(O)C1O` (stereo partly shown), under setting [1], the minimal effective concentration is greater than 500 µM. The “With Pentostadin Cell Assay” value under setting [2] worked out at 2 µM. On to `Nc1ncnc2c1ncn2[C@@H]1O[C@@H]2COP(=O)(O)OC2C1O` (stereo partly shown), for which the minimal effective concentration (Homo sapiens, U2OS) stood at 200 µM. With `[2H]c1nc(N)c2nc([2H])n([C@@H]3O[C@H](CO)[C@H](O)[C@H]3O)c2n1` [drawing 353], the minimal effective concentration under setting [1] is 12.5 µM. In addition, under setting [2], the “With Pentostadin Cell Assay” value worked out at 25 µM.

For `Nc1ncnc2c1c(Br)c(Br)n2[C@@H]1O[C@H](CO)[C@H](O)[C@H]1O`, under setting [1], the minimal effective concentration was greater than 500 µM. Further, under setting [2], the “With Pentostadin Cell Assay” value is 100 µM. For `OC[C@H]1O[C@@H](n2cnc3cc(Cl)c(Cl)cc32)C(O)C1O` (stereo partly shown) [drawing 289], in that order: 10 µM and 10 µM.

For the compound `Nc1ncnc2c1c(F)cn2[C@@H]1O[C@H](CO)[C@H](O)[C@H]1O`, under setting [1], the minimal effective concentration was greater than 500 µM. The “With Pentostadin Cell Assay” value under setting [2] is 100 µM. With `CNc1nc2c(=O)[nH]c(N)nc2n1[C@@H]1O[C@H](CO)C(O)C1O` (stereo partly shown), the minimal effective concentration under setting [1] came out at 100 µM. As to `Nc1ncnc2c1c(F)c(Br)n2[C@@H]1O[C@H](CO)[C@H](O)[C@H]1O`, the minimal effective concentration under setting [1] is greater than 500 µM. Also, the “With Pentostadin Cell Assay” value under setting [2] worked out at 100 µM. With `Nc1ncnc2c1c(Br)cn2[C@@H]1O[C@H](CO)[C@H](O)[C@H]1O` [NQZ-168], the period effect entry is “elongation period effect”. As for `Nc1ncnc2c1ncn2[C@@H]1O[C@H](CO)CC1OC(=O)CCCC[C@@H]1SC[C@@H]2NC(=O)N[C@@H]21` (stereo partly shown), under setting [1], the minimal effective concentration is greater than 500 µM. Under setting [2], the “With Pentostadin Cell Assay” value amounted to 1.5 µM. Take `Nc1ncnc2c1c(Br)cn2[C@H]1O[C@H](CO)[C@H](O)[C@H]1O`: the minimal effective concentration under setting [1] is greater than 500 µM. The “With Pentostadin Cell Assay” value under setting [2] came to 50 µM. `Nc1nc(NC2CC2)c2ncn([C@H]3C=C[C@@H](CO)O3)c2n1`: the minimal effective concentration under setting [1] came out at 400 µM.

With `Nc1ncnc2c1ncn2[C@@H]1O[C@H](CO)C(O)C1O` (stereo partly shown), under setting [1], the minimal effective concentration turned out to be 12.5 µM. In addition, under setting [2], the “With Pentostadin Cell Assay” value stood at 0.5 µM.

Regarding `Nc1ncnc2c1ncn2[C@H]1CC[C@@H](CO)O1`, the minimal effective concentration under setting [1] is 200 µM. For the compound `Nc1ncnc2c1ccn2[C@@H]1O[C@H](CO)CC1O` (stereo partly shown), the minimal effective concentration under setting [1] turned out to be 200 µM. Also, the “With Pentostadin Cell Assay” value under setting [2] turned out to be 25 µM. `O=C(CCCC[C@@H]1SC[C@@H]2NC(=O)N[C@@H]21)Nc1ncnc2c1ncn2[C@@H]1O[C@H](CO)CC1O` (stereo partly shown) [drawing 315]: the minimal effective concentration under setting [3] amounted to 200 µM.

Turning to `OC[C@H]1O[C@@H](n2cnc3c(Cl)cc(Cl)nc32)C(O)C1O` (stereo partly shown), the minimal effective concentration under setting [1] was found to be 100 µM.

For the compound `OC[C@@H]1CC(O)[C@H](n2cnc3cc(Cl)c(Cl)cc32)O1` (stereo partly shown), the minimal effective concentration under setting [1] came out at 10 µM. Turning to `Nc1ncnc2c1ccn2[C@@H]1O[C@H](CO)C(O)C1O` (stereo partly shown) [drawing 318], the “With Pentostadin Cell Assay” value under setting [2] was 25 µM. With `Nc1ncnc2c1c(I)cn2[C@@H]1O[C@H](CO)C(O)C1O` (stereo partly shown), under “Homo sapiens, U2OS”, the minimal effective concentration came out at 0.3 µM. As for `Nc1ncnc2c1c(F)cn2[C@H]1O[C@H](CO)[C@H](O)[C@H]1O`, the minimal effective concentration under setting [1] is greater than 500 µM. The “With Pentostadin Cell Assay” value under setting [2] was determined as 100 µM. Consider `[2H]c1nc(N)c2nc([2H])n([C@@H]3O[C@H](CO)C[C@H]3O)c2n1`, for which, under setting [1], the minimal effective concentration is 25 µM. Further, the “With Pentostadin Cell Assay” value under setting [2] was found to be 12.5 µM. With `Nc1ncnc2c1ccn2[C@@H]1O[C@H](CO)C(O)C1O` (stereo partly shown) [drawing 303], the minimal effective concentration under setting [1] was 0.3 µM. The “With Pentostadin Cell Assay” value under setting [2] is 0.3 µM.

For `Nc1ncnc2c1cc(Br)n2[C@@H]1O[C@H](CO)C[C@H]1O`, the minimal effective concentration under setting [1] is greater than 500 µM. Further, the “With Pentostadin Cell Assay” value under setting [2] stood at 100 µM. For `Nc1ncnc2c1ncn2[C@@H]1O[C@H]([C@H](O)CO)[C@H](O)[C@H]1O`, in that order: greater than 500 µM and 200 µM. With `Nc1ncnc2c1c(Br)c(Br)n2[C@@H]1O[C@H](CO)C[C@H]1O`, the minimal effective concentration under setting [1] is greater than 500 µM. Moreover, under setting [2], the “With Pentostadin Cell Assay” value amounted to 100 µM. Consider `Nc1ncnc2c1c(Br)cn2[C@@H]1O[C@H](CO)[C@H](O)[C@H]1O` [drawing 333], for which the minimal effective concentration under setting [1] is greater than 500 µM. Also, the “With Pentostadin Cell Assay” value under setting [2] came out at 100 µM. For `CC1(CCC(=O)O[C@@H]2[C@@H](O)[C@H](n3cnc4c(N)ncnc43)O[C@@H]2COC(=O)CCCC(=O)NCCCOCCOCCOCCCNC(=O)CCCC[C@H]2SC[C@H]3NC(=O)N[C@H]32)N=N1`, the minimal effective concentration under setting [1] is greater than 500 µM. In addition, under setting [2], the “With Pentostadin Cell Assay” value came out at 100 µM. In the case of `Nc1nc(F)nc2c1ncn2[C@@H]1O[C@H](CO)C(O)C1O` (stereo partly shown), the minimal effective concentration under setting [1] was 50 µM. `OC[C@H]1O[C@@H](n2c(F)nc3c(F)nc(F)nc32)[C@H](O)[C@H]1O` [NQZ-195]: the period effect entry is listed as “elongation period effect”. Consider `Nc1ncnc2c1nc(Br)n2[C@@H]1O[C@H](CO)[C@H](O)[C@H]1O`, for which the minimal effective concentration under setting [1] was greater than 500 µM. Besides, the “With Pentostadin Cell Assay” value under setting [2] is 100 µM. The like results for `Nc1nc(F)nc2c1nc(F)n2[C@@H]1O[C@H](CO)[C@H](O)[C@H]1O` were, in that order, greater than 500 µM and 200 µM. As to `Nc1ncnc2c1ncn2[C@@H]1O[C@H](COC(=O)CCCC[C@@H]2SC[C@@H]3NC(=O)N[C@@H]32)CC1O` (stereo partly shown) [drawing 290], the “With Pentostadin Cell Assay” value under setting [2] was 6 µM. Also, under setting [3], the minimal effective concentration is reported as greater than 500 µM.

On to `[N-]=[N+]=NC[C@@H]1CC(O)[C@H](n2cnc3c(N)ncnc32)O1` (stereo partly shown), for which, under setting [1], the minimal effective concentration was determined as 500 µM. For the same compound, under setting [2], the “With Pentostadin Cell Assay” value was found to be 25 µM. On to `COc1cc2c(N)ncnc2n1[C@@H]1O[C@H](CO)[C@H](O)[C@H]1O`, for which the minimal effective concentration under setting [1] was greater than 500 µM. Also, the “With Pentostadin Cell Assay” value under setting [2] came to 100 µM.

Consider `Nc1nc2c([nH]c(=S)n2[C@@H]2O[C@H](CO)C(O)C2O)c(=O)[nH]1` (stereo partly shown), for which, under setting [1], the minimal effective concentration was 100 µM. `Nc1ncnc2c1c(Br)cn2[C@@H]1O[C@H](CO)C[C@H]1O` [drawing 349]: the minimal effective concentration under setting [1] is greater than 500 µM. Further, the “With Pentostadin Cell Assay” value under setting [2] was determined as 100 µM. With `O=C(CCCC[C@@H]1SC[C@@H]2NC(=O)N[C@@H]21)Nc1ncnc2c1ncn2[C@@H]1O[C@H](CO)CC1O` (stereo partly shown) [drawing 292], under setting [2], the “With Pentostadin Cell Assay” value is 25 µM. The minimal effective concentration under setting [3] is listed as greater than 500 µM. On to `O=C1N[C@H]2[C@H](CS[C@H]2CCCCC(=O)OC[C@H]2O[C@@H](n3cnc4cc(Cl)c(Cl)cc43)C(O)C2O)N1` (stereo partly shown), for which the minimal effective concentration under setting [1] is 40 µM. Consider `CC1(CCC(=O)O[C@@H]2[C@H](O)[C@@H](COC(=O)CCCC(=O)NCCCOCCOCCOCCCNC(=O)CCCC[C@H]3SC[C@H]4NC(=O)N[C@H]43)O[C@H]2n2cnc3c(N)ncnc32)N=N1`, for which the minimal effective concentration under setting [1] was greater than 500 µM. The “With Pentostadin Cell Assay” value under setting [2] is 100 µM.

As for `Nc1ncnc2c1cc(Br)n2[C@@H]1O[C@H](CO)[C@H](O)[C@H]1O`, the minimal effective concentration under setting [1] is greater than 500 µM. For the same compound, under setting [2], the “With Pentostadin Cell Assay” value came to 100 µM.

As to `Nc1ncnc2c1nc(Br)n2[C@@H]1O[C@H](CO)C[C@H]1O`, under setting [1], the minimal effective concentration is greater than 500 µM. Under setting [2], the “With Pentostadin Cell Assay” value is 100 µM. For `Nc1ncnc2c1ncn2[C@@H]1O[C@H](CO)C(O)C1OC(=O)CCCC[C@@H]1SC[C@@H]2NC(=O)N[C@@H]21` (stereo partly shown), the minimal effective concentration under setting [1] was greater than 500 µM. Under setting [2], the “With Pentostadin Cell Assay” value came out at 2 µM.

With `Nc1ncnc2c1ncn2[C@@H]1O[C@H](CO)C2OC21` (stereo partly shown), the minimal effective concentration under setting [1] stood at 3 µM. As for `C=C[C@@H]1CC(O)[C@H](n2cnc3c(N)ncnc32)O1` (stereo partly shown), under setting [1], the minimal effective concentration was 200 µM. Moreover, the “With Pentostadin Cell Assay” value under setting [2] stood at 25 µM. The like results for `COc1nc(N)c2ncn([C@@H]3O[C@H](CO)C(O)C3O)c2n1` (stereo partly shown) were, in that order, greater than 500 µM and 100 µM. Take `CCCCCCCC(=O)Nc1ncnc2c1ncn2[C@@H]1O[C@H](CO)[C@H](O)[C@H]1O` [NQZ-163]: the “amplitude effect, Per2:luc signal versus control” value is listed as “more than two fold of control”. Consider `Nc1nc(N)c2ncn([C@@H]3O[C@H](CO)C(O)C3O)c2n1` (stereo partly shown), for which the minimal effective concentration under setting [1] is greater than 500 µM. For the same compound, under setting [2], the “With Pentostadin Cell Assay” value is 100 µM. For `Nc1ncnc2c1ncn2[C@@H]1O[C@H](CO)[C@H](OC(=O)CCCC[C@@H]2SC[C@@H]3NC(=O)N[C@@H]32)[C@H]1O`, in that order: greater than 500 µM and 25 µM. Regarding `Nc1ncnc2c1ncn2[C@@H]1O[C@H](COC(=O)CCCC[C@@H]2SC[C@@H]3NC(=O)N[C@@H]32)CC1O` (stereo partly shown) [drawing 316], under setting [3], the minimal effective concentration came out at 200 µM. As to `Nc1ncnc2c1ncn2[C@@H]1O[C@H](C2NN2)CC1O` (stereo partly shown), the minimal effective concentration (Homo sapiens, U2OS) was greater than 500 µM. The “With Pentostadin Cell Assay” value under setting [2] was 100 µM.

The record behind these values is patent US12667584B2, “Adenosine analog and its use in regulating the circadian clock” (NATIONAL INSTITUTE OF BIOLOGICAL SCIENCES, BEIJING, priority 2017, dated 2026).
